How the values were obtained:
MGC-803 [1] = experiment: Antiproliferative activity against human MGC-803 cells assessed as inhibition of cell growth incubated for 48 hrs by MTT assay; format: functional, cell-based; settings: MGC-803, 48 h
HCT-116 = experiment: Antiproliferative activity against human HCT-116 cells assessed as inhibition of cell growth incubated for 48 hrs by MTT assay; format: functional, cell-based; settings: HCT-116, 48 h
KYSE-30 = experiment: Antiproliferative activity against human KYSE-30 cells assessed as inhibition of cell growth incubated for 48 hrs by MTT assay; format: functional, cell-based; settings: KYSE-30, 48 h
MGC-803 [2] = experiment: Antitumor activity against human MGC-803 cells xenografted in BALB/c-nude mouse assessed as tumor growth inhibition at 30 mg/kg/day, ip administered for 18 days relative to control; format: functional; settings: MGC-803, 432 h, time 18 day, read-out: TGI
MGC-803 [3] = experiment: Antitumor activity against human MGC-803 cells xenografted in BALB/c-nude mouse assessed as tumor growth rate at 30 mg/kg/day, ip administered for 18 days relative to control; format: functional; settings: time 18 day
MGC-803 [4] = experiment: Antitumor activity against human MGC-803 cells xenografted in BALB/c-nude mouse assessed as tumor weight at 30 mg/kg/day, ip administered for 18 days (reference value: 0.656 g); format: functional; settings: time 18 day
[5] = Toxicity in BALB/c-nude mouse xenografted with human MGC-803 cells assessed as change in body weight at 30 mg/kg/day, ip administered for 18 days; format: organism-based; settings: in vivo, 432 h, time 18 day
[6] = Toxicity in BALB/c-nude mouse xenografted with human MGC-803 cells assessed as abnormal behaviour at 30 mg/kg/day, ip administered for 18 days; format: organism-based; settings: in vivo, 432 h, time 18 day

SMILES	IC50 (MGC-803 [1]) [nM]	IC50 (HCT-116) [nM]	IC50 (KYSE-30) [nM]	inhibition in vivo at 30 mg/kg/day (MGC-803 [2]) [%]	Activity (MGC-803 [3]) [%]	Activity (MGC-803 [4]) [g]	Activity [5]	Activity [6]
O=c1cc(N2CCc3ccccc32)c2ccccc2o1	1290	2980	2180					
COC1CCN(c2cc(=O)oc3ccccc23)CC1	> 20000	> 20000	> 20000					
COc1cc2c(c(OC)c1OC)-c1ccc(OC)c(=O)cc1[C@@H](NC(C)=O)CC2 [COLCHICINE]	41	55	68					
Cc1ccc2c(c1)CCN2c1cc(=O)oc2ccccc12	2090	2280	1970					
O=C(c1cc2ccccc2oc1=O)N1CCCc2cc(Cl)ccc21	9990	11900	13200					
O=c1cc(N2CCOCC2)c2ccccc2o1	> 20000	> 20000	> 20000					
COc1ccc(N2CCN(c3cc(=O)oc4ccccc34)CC2)cc1	18100	18700	> 20000					
COc1ccc2c(c1)CCCN2C(=O)c1cc2ccccc2oc1=O	4140	5580	7190					
O=c1cc(N2CCCc3cc(Br)ccc32)c2ccccc2o1	1190	1470	1520					
O=C(c1cc2ccccc2oc1=O)N1CCc2cc(Br)ccc21	13100	14200	17100					
O=c1cc(N2CCCc3ccccc32)c2ccccc2o1	670	730	680					
COc1ccc2c(c1)CCN2C(=O)c1cc2ccccc2oc1=O	7410	9440	9080					
COc1ccc(/C=C\c2cc(OC)c(OC)c(OC)c2)cc1O [COMBRETASTATIN A4]				58.5	38	0.272	Non-Toxic	Non-Toxic
CC1CCN(c2cc(=O)oc3ccccc23)CC1	> 20000	> 20000	> 20000					
Cc1ccc2c(c1)CCCN2c1cc(=O)oc2ccccc12	420	450	400					
COc1ccc2c(c1)NC(=O)CN2c1cc(=O)oc2ccccc12	12	38	34					
O=c1cc(N2CCCC2)c2ccccc2o1	> 20000	> 20000	> 20000					
CN1CCN(c2cc(=O)oc3ccccc23)CC1	> 20000	> 20000	> 20000					
O=c1cc(N2CCCc3cc(O)ccc32)c2ccccc2o1	880	910	870					
COc1ccc2c(c1)CCN2c1cc(=O)oc2ccccc12	120	160	150					
